{
  "source": "patent US20240189201A1",
  "about": "“HAIR SERUM AND SUPPLEMENT” (priority 2021, published 2024)",
  "experiment": "Comparison of hair serum compositions formulated with different crystalline CBDs (type A vs type B)",
  "details": "hair serum according to Example 2, differing only in the crystalline CBD used",
  "method": "Two hair serum compositions are prepared according to Example 2, the only difference being that the crystalline CBD used in the formulation is either of type A (needle-like crystals; FIG. 1) or type B (bunch/cluster-like; FIG. 2).\nType A crystalline CBD is sourced from Enecta, while type B CBD is sourced from Pharma Hemp.",
  "data": [
    {"molecule": "C=C(C)[C@@H]1CCC(C)=C[C@H]1c1c(O)cc(CCCCC)cc1O", "note": "[type A CBD, Cannabidiol]", "values": [
      {"measurement": "Activity / potency of CBD in hair serum, type A versus type B", "result": "significantly more active than type B CBD"},
      {"measurement": "Activity / potency of CBD in hair serum, type A versus type B", "setting": "listed as crystal structure A", "result": "significantly more potent than CBD with a different crystal structure"}
    ]}
  ]
}
